# Experimental data reported in patent publication US12552748B2, “Pyridine (thio)amides as fungicidal compounds” (Bayer Aktiengesellschaft, priority 2020, dated 2026).
# Marks after values point to notes of the source that are not given here.
# Assay: physchem
# Assay type: physicochemical
# Method in brief: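 Reversed-phase HPLC per EEC directive 79/831 Annex V.A8, calibrated with straight-chain alkan-2-ones (C3–C16) of known Log P via linear interpolation of retention times. Lambda-max from UV spectra 200–400 nm at chromatographic peaks.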
chromatographic logP,SMILES,LogP
–,Cc1ccc(CCNC(=O)c2cc(Cl)ncc2Oc2ccc3c(c2)CCC3)c(C)c1 [Compound I-232],5.49^[a]
–,O=C(O)c1cc(Cl)ncc1Oc1cccc(C2CC2)c1F [Compound 1-009],2.97^[a]
–,CSc1c(Cl)ncc(Oc2cccc(C(F)(F)F)c2)c1C(=O)NCC(F)(F)c1ccc(C)cc1C [Compound I-174],4.85^[a]
–,O=C(NCC(F)(F)c1ccc(Br)cc1Cl)c1cc(Cl)ncc1Oc1cccc(Cl)c1 [Compound I-241],4.95^[a]
–,Cc1cc(C(=O)NCC(F)c2ccc(Cl)cc2C)c(Oc2cccc(C3CC3)c2F)cn1 (centres unmarked) [Compound I-205],4.37^[a]
–,O=C(NCC(F)(F)c1ccc(C2CC2)cc1Cl)c1cc(Cl)ncc1Oc1cccc(C2CC2)c1F [Compound I-075],5.31^[a]
–,O=C(NCC(F)c1ccc(Cl)cc1Cl)c1cc(C2CC2)ncc1Oc1cccc(C2CC2)c1F (racemic) [Compound I-074],5.32^[a]
–,C[Si](C)(C)C#Cc1ccc(C(F)(F)CNC(=O)c2cc(Cl)ncc2Oc2cccc(C(F)F)c2)c(Cl)c1 [Compound I-198],5.97^[a]
–,COCCc1ccc(C(F)(F)CNC(=O)c2cc(Cl)ncc2Oc2cccc(C(F)F)c2)c(Cl)c1 [Compound I-203],4.14^[a]
–,Cc1ccc(CCNC(=O)c2cc(Cl)ncc2Oc2cccc(Cl)c2)c(C)c1 [Compound I-238],4.74^[a]
–,Cc1cnn(CCNC(=O)c2cc(Cl)ncc2Oc2cccc(C(F)(F)F)c2)c1 [Compound I-096],3.14^[a]
–,Cc1ccc(CCNC(=O)c2cc(Cl)ncc2Oc2ccc(Cl)c(Cl)c2)c(C)c1 [Compound I-250],5.08^[a]
–,Cc1ccc(CCNC(=O)c2ccncc2Oc2cccc(C(F)(F)F)c2)c(C)c1 [Compound I-184],3.11^[a]
–,COCc1cccc(Oc2cnc(Cl)cc2C(=O)NCCc2ccc(C)cc2C)c1 [Compound I-157],4.33^[a]
–,Cc1ccc(CCNC(=O)c2cc(Cl)ncc2Oc2cccc(-c3ccccc3)c2)c(C)c1 [Compound I-151],5.44^[a]
–,CCc1cc(C(=O)NCC(F)(F)c2ccc(C)cc2C)c(Oc2cccc(C(F)(F)F)c2)cn1 [Compound I-026],4.58^[a]
–,"Cc1ccc(CCNC(=O)c2cc(Cl)ncc2Oc2cccc(C3CC3F)c2)c(C)c1 (single isomer, unassigned) [Compound I-265]",4.70^[a]
–,COCCc1cc(C(=O)NCCc2ccc(C)cc2C)c(Oc2cccc(C(F)(F)F)c2)cn1 [Compound I-118],4.16^[a]
–,Cc1ccc(C(F)(F)CNC(=O)c2c(Oc3cccc(C(F)(F)F)c3)cnc(Cl)c2F)c(C)c1 [Compound I-181],4.85^[a]
–,O=C(NCC(F)(F)c1ccc(Br)cc1Cl)c1cc(Cl)ncc1Oc1cccc(C2CC2)c1 [Compound I-066],5.36^[a]
–,CC(NC(=O)c1cc(Cl)ncc1Oc1cccc(C(F)(F)F)c1)c1ccc(Cl)s1 (centres unmarked) [Compound I-103],4.47^[a]
–,Cc1ccc(CCNC(=O)c2cc(Cl)ncc2Oc2ccc(F)c(Cl)c2)c(C)c1 [Compound I-154],4.72^[a]
–,Cc1ccc(C(F)(F)CNC(=O)c2c(Oc3cccc(C4CC4)c3F)cnc(Cl)c2Cl)c(C)c1 [Compound I-153],5.08^[a]
–,CO/N=C(\C)c1cc(C(=O)NCCc2ccc(C)cc2C)c(Oc2cccc(C(F)(F)F)c2)cn1 [Compound I-093],5.36^[a]

chromatographic logP,SMILES,LogP
–,Cc1ccc(CCNC(=O)c2cc(C)ncc2Oc2cccc(Cl)c2)c(C)c1 [Compound I-234],3.96^[a]
–,Cc1ccc(CCNC(=O)c2cc(Cl)ncc2Oc2cccc(C3CCC3)c2)c(C)c1 [Compound I-257],5.84^[a]
–,O=C(NCCc1ccc2c(c1)OCO2)c1cc(Cl)ncc1Oc1cccc(C(F)(F)F)c1 [Compound I-108],3.87^[a]
–,O=C(NCCc1csc2ccc(Cl)cc12)c1cc(Cl)ncc1Oc1cccc(C(F)(F)F)c1 [Compound I-213],5.00^[a]
–,CCC(=O)N(CCc1ccccc1)C(=O)c1cc(Cl)ncc1Oc1cccc(C(F)(F)F)c1 [Compound I-166],5.08^[a]
–,CCc1cc(C(=O)NCC(F)c2ccc(F)cc2F)c(Oc2cccc(C(F)(F)F)c2)cn1 (centres unmarked) [Compound I-022],4.66^[a]
–,Cc1ccc(CCNC(=O)c2cc(C)ncc2Oc2cccc(C3CC3)c2)c(C)c1 [Compound I-242],4.27^[a]
–,Cc1ccc(CCNC(=O)c2cc(Cl)ncc2Oc2cc(F)cc(Cl)c2)c(C)c1 [Compound I-244],4.82^[a]
–,COC(=O)c1cc(C#C[Si](C)(C)C)ncc1Oc1cccc(C(F)(F)F)c1 [Compound 1-004],5.35^[a]
–,Cc1ccc(C(F)(F)CNC(=O)c2cc(Cl)nc(Cl)c2Oc2cccc(C(F)(F)F)c2)c(C)c1 [Compound I-247],5.16^[a]
–,Cc1ccc(CCNC(=O)c2cc(Cl)ncc2Oc2ccc(C(F)(F)F)c(Cl)c2)c(C)c1 [Compound I-111],4.48^[a]
–,COC(=O)Cc1cccc(Oc2cnc(Cl)cc2C(=O)NCCc2ccc(C)cc2C)c1 [Compound I-196],4.17^[a]
–,Cc1ccc(C(F)(F)CNC(=O)c2cc(C)ncc2Oc2cccc(C3CC3)c2F)c(Cl)c1 [Compound I-089],4.47^[a]
–,CCc1cc(Oc2cnc(Cl)cc2C(=O)NCCc2ccc(C)cc2C)c(C(=O)OC)s1 [Compound I-162],4.51^[a]
–,Cc1ccc(C(F)(F)CNC(=O)c2cc(C)ncc2Oc2cccc(C3CC3)c2F)c(C)c1 [Compound I-069],4.46^[a]
–,COc1cccc(Oc2cnc(Cl)cc2C(=O)NCC(F)(F)c2ccc(C)cc2C)c1 [Compound I-042],4.46^[a]
–,O=C(NCC(F)c1ccc(C2CC2)cc1Cl)c1cc(Cl)ncc1Oc1cccc(C(F)(F)F)c1 (racemic) [Compound I-085],5.08^[a]
–,O=C(NCCc1ccc2c(c1)CCO2)c1cc(Cl)ncc1Oc1cccc(C(F)(F)F)c1 [Compound I-104],3.98^[a]
–,Cc1ccc(CCNC(=O)c2cc(Cl)ncc2Oc2cnc3c(c2)CCC3)c(C)c1 [Compound I-227],3.35^[a]
–,Cc1ccc(CCNC(=O)c2cc(Cl)ncc2Oc2cccc(-c3ccccn3)c2)c(C)c1 [Compound I-258],4.16^[a]
–,Cc1ccc(CCNC(=O)c2cc(Cl)nc(Cl)c2Oc2cccc(C(F)(F)F)c2)c(Cl)c1 [Compound I-245],5.17^[a]
–,Cc1ccc(CCNC(=O)c2cc(Cl)ncc2Oc2cccc([N+](=O)[O-])c2)c(C)c1 [Compound I-130],4.08^[a]
–,O=C(NCC(F)c1ccc(Cl)c(Cl)c1)c1cc(Cl)ncc1Oc1cccc(C(F)(F)F)c1 (racemic) [Compound I-082],4.81^[a]
–,Cc1cc(C(=O)NCC(F)c2ccc(Cl)cc2Cl)c(Oc2cccc(C3CC3)c2F)cn1 (racemic) [Compound I-078],4.49^[a]

chromatographic logP,SMILES,LogP
–,Cc1ccc(CONC(=O)c2cc(Cl)ncc2Oc2cccc(C(F)(F)F)c2)c(C)c1 [Compound I-017],4.26^[a]
–,C#Cc1cccc(Oc2cnc(Cl)cc2C(=O)NCCc2ccc(C)cc2C)c1 [Compound I-129],4.45^[a]
–,Cc1ccc(CCNC(=O)c2cc(Cl)ncc2Oc2cccc(Br)c2)c(C)c1 [Compound I-137],4.86^[a]
–,C#Cc1ccc(C(F)(F)CNC(=O)c2cc(Cl)ncc2Oc2cccc(C(F)(F)F)c2)c(Cl)c1 [Compound I-029],4.53^[a]
–,O=C(NCC(F)c1ccc(Cl)cc1Cl)c1cc(Cl)ncc1Oc1cccc(C2CC2)c1F (racemic) [Compound I-060],5.17^[a]
–,Cc1ccc(CCNC(=O)c2cc(Cl)ncc2Oc2cc(F)c(F)cc2F)c(C)c1 [Compound I-233],4.42^[a]
–,Cc1ccc(C(F)(F)CNC(=O)c2cc(Cl)ncc2Oc2cccc(C3CC3)c2)c(C)c1 [Compound I-065],5.17^[a]
–,Cc1ccc(C(F)(F)CNC(=O)c2cc(C)ncc2Oc2cccc(Cl)c2)c(Cl)c1 [Compound I-067],4.06^[a]
–,Cc1ccc(CCNC(=O)c2cc(C3CC3)ncc2Oc2cccc(C3CC3)c2F)c(C)c1 [Compound I-243],5.32^[a]
–,Cc1ccc(CCNC(=O)c2cc(Cl)ncc2Oc2cccc(C=O)c2F)c(C)c1 [Compound I-127],3.85^[a]
–,Cc1ccc(C(F)CNC(=O)c2cc(Cl)ncc2Oc2cccc(C(F)(F)F)c2)cc1C (racemic) [Compound I-079],4.70^[a]
–,CON=C(C)c1cc(C(=O)NCCc2ccc(C)cc2C)c(Oc2cccc(C(F)(F)F)c2)cn1 (mixture of isomers) [Compound I-251],5.36^[a]
–,Cc1ccc(C(F)CNC(=O)c2cc(C)ncc2Oc2cccc(C(F)(F)F)c2)c(Cl)c1 (racemic) [Compound I-263],4.08^[a]
4.7,"C=C(OCC)c1cc(C(=O)OC)c(Oc2cccc(C(F)(F)F)c2)cn1 [Compound 1-013, methyl 2-(1-ethoxyvinyl)-5-[3-(trifluoromethyl)phenoxy]pyridine-4-carboxylate]",–
–,Cc1ccc(CCNC(=O)c2cc(Cl)ncc2Oc2cccc(C3COC3)c2)c(C)c1 [Compound I-139],3.88^[a]
–,Cc1ccc(CCNC(=O)c2cc(Cl)ncc2Oc2cccc(S(C)(=O)=O)c2)c(C)c1 [Compound I-261],3.38^[a]
–,COCCOc1cccc(Oc2cnc(Cl)cc2C(=O)NCCc2ccc(C)cc2C)c1 [Compound I-235],4.27^[a]
–,CCOc1cccc(Oc2cnc(Cl)cc2C(=O)NCCc2ccc(C)cc2C)c1 [Compound I-259],4.85^[a]
–,COc1cccc(Oc2cnc(C)cc2C(=O)NCC(F)(F)c2ccc(C)cc2C)c1 [Compound I-182],3.71^[a]
–,C=Cc1cc(C(=O)NCC(F)(F)c2ccc(C)cc2C)c(Oc2cccc(C3CC3)c2F)cn1 [Compound I-173],5.04^[a]
–,Cc1ccc(C(F)(F)CNC(=O)c2c(Br)cnc(Cl)c2Oc2cccc(Cl)c2)c(C)c1 [Compound I-178],5.04^[a]
–,O=C(NCC(F)(F)c1ccc(Cl)cn1)c1cc(Cl)ncc1Oc1cccc(C(F)(F)F)c1 [Compound I-260],3.99^[a]
–,Cc1ccc(CCNC(=O)c2cc(Cl)ncc2Oc2cccc(C)c2F)c(C)c1 [Compound I-131],4.76^[a]
